From ChEMBL document CHEMBL1149361, “Synthesis, biochemical evaluation and rationalisation of the inhibitory activity of a range of 4-substituted phenyl alkyl imidazole-based inhibitors of the enzyme complex 17alpha-hydroxylase/17,20-lyase (P450(17alpha))” (Bioorg Med Chem Lett, 2006)

Columns and labels:
[1] = biological target: T1, Steroid 17-alpha-hydroxylase/17,20 lyase (Rattus norvegicus, UniProt P11715); experiment: Inhibition of rat testis 17,20 lyase component of P450-17alpha at 10 uM
T1 sequence (P11715 whole entry): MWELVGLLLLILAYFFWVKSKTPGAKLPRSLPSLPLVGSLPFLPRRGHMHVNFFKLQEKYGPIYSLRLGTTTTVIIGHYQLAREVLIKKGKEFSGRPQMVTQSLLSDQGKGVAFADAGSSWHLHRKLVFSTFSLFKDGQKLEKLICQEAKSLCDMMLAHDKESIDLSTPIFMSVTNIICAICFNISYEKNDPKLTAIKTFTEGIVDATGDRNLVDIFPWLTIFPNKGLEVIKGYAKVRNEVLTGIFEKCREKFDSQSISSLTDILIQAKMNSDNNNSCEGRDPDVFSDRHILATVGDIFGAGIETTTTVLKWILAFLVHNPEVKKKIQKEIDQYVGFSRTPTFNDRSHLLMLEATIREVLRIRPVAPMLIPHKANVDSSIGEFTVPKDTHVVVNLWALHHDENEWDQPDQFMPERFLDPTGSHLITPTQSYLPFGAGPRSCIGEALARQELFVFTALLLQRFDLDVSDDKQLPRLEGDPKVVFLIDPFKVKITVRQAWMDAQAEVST

[2] = biological target: T1, Steroid 17-alpha-hydroxylase/17,20 lyase; experiment: Inhibition of rat testis 17,20 lyase component of P450-17alpha
[3] = biological target: T1, Steroid 17-alpha-hydroxylase/17,20 lyase; experiment: Inhibition of rat testis 17-alpha-hydroxylase component of P450-17alpha
[4] = biological target: T1, Steroid 17-alpha-hydroxylase/17,20 lyase; experiment: Inhibition of rat testis 17-alpha-hydroxylase component of P450-17alpha at 10 uM

Compound | inhibition at 10 µM [1] [%] | IC50 [2] [µM] | IC50 [3] [µM] | inhibition at 10 µM [4] [%]
Brc1ccc(Cn2ccnc2)cc1 | 76.2 | 2.85 | 16.6 | 49.3
Clc1ccc(CCn2ccnc2)cc1 | 57.4 | – | 49.6 | 28.4
Clc1ccc(CCCn2ccnc2)cc1 | 80.8 | 0.55 | 5.85 | 71
CC(=O)N1CCN(c2ccc(OCC3COC(Cn4ccnc4)(c4ccc(Cl)cc4Cl)O3)cc2)CC1 (stereo not given) [KETOCONAZOLE] | 78.7 | – | – | 61.5
Fc1ccc(Cn2ccnc2)cc1 | 51 | 11.3 | 96.5 | 20.5
Brc1ccc(CCn2ccnc2)cc1 | 61.5 | – | 30.7 | 37.5
c1ccc(Cn2ccnc2)cc1 | 12.6 | 50.9 | 154 | 13.5
Clc1ccc(Cn2ccnc2)cc1 | 73.7 | 4.94 | 29.8 | 45.7
Brc1ccc(CCCn2ccnc2)cc1 | 86.3 | 0.33 | 2.95 | 70.2
Fc1ccc(CCn2ccnc2)cc1 | 45.1 | – | 120 | 22.5
Fc1ccc(CCCn2ccnc2)cc1 | 73.2 | 1.96 | 27.8 | 40.8
c1ccc(CCn2ccnc2)cc1 | 6.36 | – | – | 10.6
c1ccc(CCCn2ccnc2)cc1 | 40 | 6.14 | 30.9 | 23.4
